Where “and” joins values, the source holds several entries; their conditions need not be identical. Equal entries are not always repeated. Entries after “also recorded” stand apart in the source; their conditions may differ. Where two headings read alike, the source gives them in different places.
Legend:
rats = settings: for effect when given alone on gait abnormality: single chemical data, rats
From the text: The endpoint of interest is neurotoxicity in rats as measured by a gait score dichotomized to indicate presence or absence of a gait abnormality (i.e., incoordination, loss of balance, etc.). The fixed-ratio ray under study was chosen based on the relative dietary exposure estimates of each chemical as projected by the U.S. EPA Dietary Exposure Evaluation Model (DEEM) and is given by (0.040:0.002:0.031:0.825:0.102) for ACE, DIA, CPF, MAL, DIM, respectively. […] (Note: Such a strategy can be extended for identifying the impact of the unidentified fraction in a complex mixture.)
The biological endpoint of interest is an indicator of neurotoxicity based on evidence of the presence or absence of a gait abnormality (Moser, 1995). In order to appropriately constrain the probability of a response to be between 0 and 1, a logit link function was used, i.e., g(μ)=log(μ/(1−μ)). It was assumed throughout that the variance changes as a binomial random variable such that Var(Y)=τμ(1−μ) (e.g., McCullagh and Nelder, 1989).
The resulting mixture experiment consisted of a vehicle control (n=14), ‘positive controls’ for ACE alone (6 and 30 mg/kg; n=6, 14, respectively), CPF alone (10, 20, 30 mg/kg; n=6, 8, 6, respectively), DIAZ alone (50 and 125 mg/kg; n=6, 14, respectively), MAL alone (350 mg/kg; n=14), DIM alone (10, 25, 50 mg/kg; n=6, 8, 6, respectively), and six total dose mixture concentrations (10, 55, 100, 200, 300 and 450 mg/kg; n=12 rats per dose group for a total of 72 rats exposed to a mixture of the chemicals) at a fixed mixing ratio ray of (0.040:0.002:0.031:0.825:0.102) for (ACE:DIA:CPF:MAL:DIM). Similarly, the design for a second fixed-ratio ray was based on a reduced number of the pesticides (omitting MAL) with the remaining pesticides at the same relative proportions as in the ‘full’ mixture study. The experiment consisted of a vehicle control (n=8), positive controls (n=8 per group) for ACE (30 mg/kg), CPF (20 mg/kg), DIA (125 mg/kg), and DIM (25 mg/kg), and six total dose mixture concentrations (1.75, 9.6, 17.5, 35, 52.5, and 78.8 mg/kg; n=12 rats per dose group) at a fixed mixing ratio ray of (0.229:0.011:0.177:0.583) for (ACE:DIA:CPF:DIM). Casey et al (2003a,b) describe the motor activity data in the mixture of these five pesticides.

healthy adult rats = settings: for Threshold Estimate: dose threshold for motor activity, threshold additivity model, SAR analysis; for Threshold Estimate / Mean Motor Activity Response: rats; for Mean Motor Activity Response: single chemical
From the text: To motivate the use of these fixed-ratio mixture ray designs consider a study which examines exposure to environmentally relevant pesticides. The OP pesticides chosen for study, based on usage patterns (i.e. pesticides used on same or similar crops) and market share (i.e. highest volume pesticides), were acephate, diazinon, chlorpyrifos, dimethoate, and malathion. Motor activity, a count of the number of passes made across a central area, was used to assess toxicity in healthy adult rats. A full five-pesticide fixed-ratio ray, given by (0.040:0.002:0.031:0.102:0.825) for (acephate:diazinon:chlorpyrifos:dimethoate:malathion), was chosen based on relative dietary exposure estimates of each chemical as projected by the U.S. EPA Dietary Exposure Evaluation Model (DEEM).
Single chemical data were collected approximately 18 months prior to the data along the full fixed-ration ray.
Fixed-ratio ray designs were chosen to study interactions among combinations of multiple pesticides. The pesticides chosen for these studies, based on usage patterns (i.e., pesticides used on the same or similar crops) and market share (i.e., highest volume pesticides), were acephate, diazinon, chlorpyrifos, dimethoate, and malathion. Motor activity, a count of the number of passes made across a central area, was chosen to assess the toxicity of these pesticides in healthy adult rats. The fixed-ratio ray under study was chosen based on the relative dietary exposure estimates of each chemical as projected by the U.S. EPA Dietary Exposure Evaluation Model (DEEM) and is given by (0.040:0.002:0.031:0.102:0.825) for acephate, diazinon, chlorpyrifos, dimethoate, and malathion respectively.
The five-pesticide study described in the introduction is used to illustrate the sample size and power methods developed in Section 3. Due to the high potential of aggregate exposure to OP pesticides, researchers were initially interested in testing the hypothesis of additivity, given in (5), along the full five-pesticide fixed-ratio ray, given by (0.040:0.002:0.031:0.102:0.825) for ([…]), that represents relative dietary exposure estimates. Single chemical data were collected and used to estimate an additivity model along the ray (analysis not shown). Since, the motor activity response is a count variable it was assumed that V(m)=m and the log link function (McCullagh and Nelder, 1989) was used to fit the generalized linear additivity model described in Section 2. […] Eighty-six animals were considered. Fourteen animals were evaluated in the control group. Twelve animals each were evaluated at 10, 55, 100, 200, 300, and 450 mg/kg. Summary statistics for the single chemical and mixture data are provided in the appendix.
The five-pesticide study described in the introduction is used to illustrate the design methodology developed in the following sections. Due to the high potential for aggregate exposure to OP pesticides, researchers were initially interested in testing the hypothesis of additivity, given in (4), along the full five-pesticide fixed-ratio ray, given by (0.040:0.002:0.031:0.102:0.825) for (acephate:diazinon:chlorpyrifos:dimethoate:malathion). Since motor activity response is a count variable, it was assumed that V(μ)=μ and the log link function (McCullagh and Nelder, 1989) was used to fit the generalized linear additivity model given in (1). […] Eighty-six animals were considered. Fourteen animals were evaluated in the control group. Twelve animals each were evaluated at 10, 55, 100, 200, 300, and 450 mg/kg.

SMILES	effect when given alone on gait abnormality (rats)	Threshold Estimate (healthy adult rats) [mg/kg]	Mean Motor Activity Response (healthy adult rats; dose 5 mg/kg)	Mean Motor Activity Response (healthy adult rats; dose 25 mg/kg)	Mean Motor Activity Response (healthy adult rats; dose 50 mg/kg)	Mean Motor Activity Response (healthy adult rats; dose 10 mg/kg)	Mean Motor Activity Response (healthy adult rats; dose 30 mg/kg)	other results
CCOP(=S)(OCC)Oc1cc(C)nc(C(C)C)n1 [Diazinon, diazinon]	significant effect on a gait abnormality	25.0	190.88	215.56	183.13	–	–	Mean Motor Activity Response (healthy adult rats; dose 75 mg/kg): 165.69; Mean Motor Activity Response (healthy adult rats; dose 125 mg/kg): 152.00; Mean Motor Activity Response (healthy adult rats; dose 150 mg/kg): 76.5; Mean Motor Activity Response (healthy adult rats; dose 250 mg/kg): 61.25
COP(=O)(NC(C)=O)SC (stereo not shown) [Acephate, acephate]	significant effect on a gait abnormality	6.30	–	–	–	165.88	108.75	Mean Motor Activity Response (healthy adult rats; dose 3 mg/kg): 200.13; Mean Motor Activity Response (healthy adult rats; dose 60 mg/kg): 58.25; Mean Motor Activity Response (healthy adult rats; dose 120 mg/kg): 33.25
CCOP(=S)(OCC)Oc1nc(Cl)c(Cl)cc1Cl [Chlorpyrifos, chlorpyrifos]	significant effect on a gait abnormality	4.69	213.37	162.00	49.44 and 56.38	178.31 and 172.13	80.13	Mean Motor Activity Response (healthy adult rats; dose 1 mg/kg): 213.13; Mean Motor Activity Response (healthy adult rats; dose 2 mg/kg): 192.75; Mean Motor Activity Response (healthy adult rats; dose 20 mg/kg): 157.13
CCOC(=O)CC(SP(=S)(OC)OC)C(=O)OCC (stereo not shown) [Malathion, malathion]	–	–	–	–	–	–	–	effect of MAL on the mixture, gait abnormality (rats; adjusted comparison of full and reduced rays, listed as MAL): significantly (p=0.016) changes the shape of the dose response curve in the full ray; also recorded: interacts with at least some or all of the other four pesticides; also recorded: interacts with the other pesticides; effect when given alone on gait abnormality (rats; listed as MAL): not dose responsive; effect of malathion on the mixture, motor activity (healthy adult rats; SAR method, full vs reduced ray, p-value 0.068): marginal evidence that malathion has an effect on the mixture; Mean Motor Activity Response (healthy adult rats; dose 100 mg/kg): 201.5; Mean Motor Activity Response (healthy adult rats; dose 500 mg/kg): 203.75
